The molecules below were run on HBV (assay: HepAD38 anti-HBV assay: reduction of viral product accumulation (virion DNA qPCR, HBsAg/HBeAg ELISA)). Details: Hepatitis B virus, 120 h; HepAD38 cells; concentration reducing viral product accumulation by 50% relative to no drug controls; harvest five days after compound addition; read-out: HepAD38 EC50.
Assay type: cell-based
In short: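 Tetracycline-free HepAD38 cells treated 5 days with compound (1:200 DMSO dilution), or 8 days with media and compound refreshed on d2 and d5. Virion DNA quantified by qPCR; HBsAg or HBeAg by ELISA. EC50 is the concentration reducing viral product accumulation 50% versus no-drug controls.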
With `CC1CCC(C)N1S(=O)(=O)N[C@H]1CC2=C(c3ccn(C(F)F)n3)[C@H](c3ccc(F)cc3Cl)N=C(c3nccs3)N2C1` (stereo partly shown) [Example 291] the EC50 was < 100 nM. `CC1(C)CCCN(S(=O)(=O)N[C@H]2CC3=C(c4ccn(C(F)F)n4)[C@H](c4ccc(F)cc4Cl)N=C(c4nccs4)N3C2)C1` [Example 292] was tested, and the EC50 was < 100 nM. For `CC1(C)CCCCN1S(=O)(=O)N[C@H]1CC2=C(c3ccn(C(F)F)n3)[C@H](c3ccc(F)cc3Cl)N=C(c3nccs3)N2C1` [Example 295], the EC50 was < 100 nM. `O=S(=O)(N[C@H]1CC2=C(c3ccn(C(F)F)n3)[C@H](c3ccc(F)cc3Cl)N=C(c3nccs3)N2C1)C1CC(OCc2ccccc2)C1` (stereo partly shown) [Example 296] was tested, and the EC50 was < 100 nM. For `O=S(=O)(CCCC(O)c1ccccn1)N[C@H]1CC2=C(c3ccn(C(F)F)n3)[C@H](c3ccc(F)cc3Cl)N=C(c3nccs3)N2C1` (stereo partly shown) [Example 297], the EC50 was 100 to 400 nM. `O=S(=O)(C[C@@H]1CC2=C(c3ccn(C(F)F)n3)[C@H](c3ccc(F)cc3Cl)N=C(c3nccs3)N2C1)N1CCCCC1` [Example 298] showed an EC50 of 100 to 400 nM. In the case of `C[C@@H]1CN(S(=O)(=O)N[C@H]2CC3=C(c4ccn(C(F)F)n4)[C@H](c4ccc(F)cc4Cl)N=C(c4nccs4)N3C2)C[C@@H]1C` [Example 299], the EC50 is reported as < 100 nM. `C[C@H]1CN(S(=O)(=O)N[C@H]2CC3=C(c4ccn(C(F)F)n4)[C@H](c4ccc(F)cc4Cl)N=C(c4nccs4)N3C2)C[C@@H]1C` [Example 300] was tested, and the EC50 was < 100 nM. In the case of `O=S(=O)(NCc1ccccc1)N[C@H]1CC2=C(c3ccn(C(F)F)n3)[C@H](c3ccc(F)cc3Cl)N=C(c3nccs3)N2C1` [Example 305], the EC50 is reported as 100 to 400 nM. `O=S(=O)(NCc1ccccn1)N[C@H]1CC2=C(c3ccn(C(F)F)n3)[C@H](c3ccc(F)cc3Cl)N=C(c3nccs3)N2C1` [Example 306] was tested, and the EC50 was 100 to 400 nM. For `O=S(=O)(NCc1nccs1)N[C@H]1CC2=C(c3ccn(C(F)F)n3)[C@H](c3ccc(F)cc3Cl)N=C(c3nccs3)N2C1` [Example 307], the EC50 was < 100 nM. For `O=S(=O)(NCC(O)c1ccccn1)N[C@H]1CC2=C(c3ccn(C(F)F)n3)[C@H](c3ccc(F)cc3Cl)N=C(c3nccs3)N2C1` (stereo partly shown) [Example 308], the EC50 was < 100 nM. With `CC(=O)OCCCS(=O)(=O)N[C@H]1CC2=C(c3ccn(C(F)F)n3)[C@H](c3ccc(F)cc3Cl)N=C(c3nccs3)N2C1` [Example 310] the EC50 was < 100 nM. With `CC(=O)OCCCS(=O)(=O)N([C@H]1CC2=C(c3ccn(C(F)F)n3)[C@H](c3ccc(F)cc3Cl)N=C(c3nccs3)N2C1)S(=O)(=O)CCCOC(C)=O` [Example 311] the EC50 was < 100 nM. With `O=S(=O)(NCc1ncc[nH]1)N[C@H]1CC2=C(c3ccn(C(F)F)n3)[C@H](c3ccc(F)cc3Cl)N=C(c3nccs3)N2C1` [Example 314] the EC50 was 100 to 400 nM. Molecule `CC(C)(CNS(=O)(=O)N[C@H]1CC2=C(c3ccn(C(F)F)n3)[C@H](c3ccc(F)cc3Cl)N=C(c3nccs3)N2C1)c1ccccn1` [Example 315] has an EC50 of 100 to 400 nM. In the case of `O=S(=O)(NCC1(c2ccccn2)CC1)N[C@H]1CC2=C(c3ccn(C(F)F)n3)[C@H](c3ccc(F)cc3Cl)N=C(c3nccs3)N2C1` [Example 316], the EC50 is reported as 100 to 400 nM. For `O=S(=O)(NCc1cnccn1)N[C@H]1CC2=C(c3ccn(C(F)F)n3)[C@H](c3ccc(F)cc3Cl)N=C(c3nccs3)N2C1` [Example 317], the EC50 was < 100 nM. In the case of `CC(C)(NS(=O)(=O)N[C@H]1CC2=C(c3ccn(C(F)F)n3)[C@H](c3ccc(F)cc3Cl)N=C(c3nccs3)N2C1)c1ccccn1` [Example 318], the EC50 is reported as < 100 nM. In the case of `CCCCS(=O)(=O)N[C@H]1CC2=C(c3ccn(C(F)F)n3)[C@H](c3ccc(F)cc3Cl)N=C(c3nccs3)N2C1` [Example 319], the EC50 is reported as < 100 nM. Work on `O=S(=O)(Nc1ccccn1)N[C@H]1CC2=C(c3ccn(C(F)F)n3)[C@H](c3ccc(F)cc3Cl)N=C(c3nccs3)N2C1` [Example 320] yielded an EC50 of 100 to 400 nM. For `O=S(=O)(N[C@H]1CC2=C(c3ccn(C(F)F)n3)[C@H](c3ccc(F)cc3Cl)N=C(c3nccs3)N2C1)NC1(c2ccccn2)CC1` [Example 321], the EC50 was < 100 nM. For `O=C(N[C@H]1CC2=C(c3ccn(C(F)F)n3)[C@H](c3ccc(F)cc3Cl)N=C(c3nccs3)N2C1)C1(c2ccccn2)CC1` [Example 322], the EC50 was 100 to 400 nM. `O=S(=O)(N[C@H]1CC2=C(c3ccn(C(F)F)n3)[C@H](c3ccc(F)cc3Cl)N=C(c3nccs3)N2C1)NC1(Cc2ccccn2)CC1` [Example 325] showed an EC50 of 100 to 400 nM. `O=C(Cc1ccccn1)N[C@H]1CC2=C(c3ccn(C(F)F)n3)[C@H](c3ccc(F)cc3Cl)N=C(c3nccs3)N2C1` [Example 326] showed an EC50 of 100 to 400 nM. For `O=C(Nc1ccccn1)OCCCS(=O)(=O)N[C@H]1CC2=C(c3ccn(C(F)F)n3)[C@H](c3ccc(F)cc3Cl)N=C(c3nccs3)N2C1` [Example 327], the EC50 was < 100 nM. `CS(=O)(=O)CCS(=O)(=O)N[C@H]1CC2=C(c3ccn(C(F)F)n3)[C@H](c3ccc(F)cc3Cl)N=C(c3nccs3)N2C1` [Example 328] was tested, and the EC50 was < 100 nM. `CS(=O)(=O)CCCS(=O)(=O)N[C@H]1CC2=C(c3ccn(C(F)F)n3)[C@H](c3ccc(F)cc3Cl)N=C(c3nccs3)N2C1` [Example 329] was tested, and the EC50 was < 100 nM. `Fc1ccc([C@@H]2N=C(c3nccs3)N3C[C@@H](Nc4ccc(-c5ccccn5)cc4)CC3=C2c2ccn(C(F)F)n2)c(Cl)c1` [Example 330] showed an EC50 of 100 to 400 nM. `Fc1ccc([C@@H]2N=C(c3nccs3)N3C[C@@H](Nc4cccc(-c5ccccn5)c4)CC3=C2c2ccn(C(F)F)n2)c(Cl)c1` [Example 331] was tested, and the EC50 was 100 to 400 nM. `O=Cc1cccc(S(=O)(=O)N[C@H]2CC3=C(c4ccn(C(F)F)n4)[C@H](c4ccc(F)cc4Cl)N=C(c4nccs4)N3C2)c1` [Example 333] was tested, and the EC50 was < 100 nM. With `O=S(=O)(NC(CO)c1ccccn1)N[C@H]1CC2=C(c3ccn(C(F)F)n3)[C@H](c3ccc(F)cc3Cl)N=C(c3nccs3)N2C1` (stereo partly shown) [Example 338] the EC50 was < 100 nM. For `CC(C)[C@@H](NS(=O)(=O)N[C@H]1CC2=C(c3ccn(C(F)F)n3)[C@H](c3ccc(F)cc3Cl)N=C(c3nccs3)N2C1)c1ccccn1` [Example 341], the EC50 was 100 to 400 nM. In the case of `CCOC(=O)C(NS(=O)(=O)N[C@H]1CC2=C(c3ccn(C(F)F)n3)[C@H](c3ccc(F)cc3Cl)N=C(c3nccs3)N2C1)c1ccccn1` (stereo partly shown) [Example 343], the EC50 is reported as < 100 nM. For `CS(=O)(=O)NCCS(=O)(=O)N[C@H]1CC2=C(c3ccn(C(F)F)n3)[C@H](c3ccc(F)cc3Cl)N=C(c3nccs3)N2C1` [Example 344], the EC50 was 100 to 400 nM. For `CS(=O)(=O)CC(NS(=O)(=O)N[C@H]1CC2=C(c3ccn(C(F)F)n3)[C@H](c3ccc(F)cc3Cl)N=C(c3nccs3)N2C1)c1ccccn1` (stereo partly shown) [Example 345], the EC50 was < 100 nM. For `O=S(=O)(Nc1ccc(-c2ccccn2)cc1)N[C@H]1CC2=C(c3ccn(C(F)F)n3)[C@H](c3ccc(F)cc3Cl)N=C(c3nccs3)N2C1` [Example 346], the EC50 was < 100 nM. For `CS(=O)(=O)c1ccc(NS(=O)(=O)N[C@H]2CC3=C(c4ccn(C(F)F)n4)[C@H](c4ccc(F)cc4Cl)N=C(c4nccs4)N3C2)cc1` [Example 347], the EC50 was 100 to 400 nM. For `O=S(=O)(Nc1ccc(C(O)c2ccccn2)cc1)N[C@H]1CC2=C(c3ccn(C(F)F)n3)[C@H](c3ccc(F)cc3Cl)N=C(c3nccs3)N2C1` (stereo partly shown) [Example 348], the EC50 was < 100 nM. `CS(=O)(=O)Nc1ccc(NS(=O)(=O)N[C@H]2CC3=C(c4ccn(C(F)F)n4)[C@H](c4ccc(F)cc4Cl)N=C(c4nccs4)N3C2)cc1` [Example 349] was tested, and the EC50 was < 100 nM. For `O=S(=O)(NCCCc1ccccn1)N[C@H]1CC2=C(c3ccn(C(F)F)n3)[C@H](c3ccc(F)cc3Cl)N=C(c3nccs3)N2C1` [Example 350], the EC50 was 100 to 400 nM. `CC[C@H](NS(=O)(=O)N[C@H]1CC2=C(c3ccn(C(F)F)n3)[C@H](c3ccc(F)cc3Cl)N=C(c3nccs3)N2C1)c1ccccn1` [Example 351] was tested, and the EC50 was < 100 nM. `CC[C@@H](NS(=O)(=O)N[C@H]1CC2=C(c3ccn(C(F)F)n3)[C@H](c3ccc(F)cc3Cl)N=C(c3nccs3)N2C1)c1ccccn1` [Example 352] was tested, and the EC50 was 100 to 400 nM. With `O=S(=O)(N[C@H]1CC2=C(c3ccn(C(F)F)n3)[C@H](c3ccc(F)cc3Cl)N=C(c3nccs3)N2C1)N[C@@H](c1ccccn1)C1CC1` [Example 354] the EC50 was 100 to 400 nM. Work on `CCOC(=O)CC(NS(=O)(=O)N[C@H]1CC2=C(c3ccn(C(F)F)n3)[C@H](c3ccc(F)cc3Cl)N=C(c3nccs3)N2C1)c1ccccn1` (stereo partly shown) [Example 355] yielded an EC50 of 100 to 400 nM. `O=C(O)CC(NS(=O)(=O)N[C@H]1CC2=C(c3ccn(C(F)F)n3)[C@H](c3ccc(F)cc3Cl)N=C(c3nccs3)N2C1)c1ccccn1` (stereo partly shown) [Example 356] was tested, and the EC50 was 100 to 400 nM. `CC(C)C[C@@H](NS(=O)(=O)N[C@H]1CC2=C(c3ccn(C(F)F)n3)[C@H](c3ccc(F)cc3Cl)N=C(c3nccs3)N2C1)c1ccccn1` [Example 360] showed an EC50 of 100 to 400 nM. `O=S(=O)(N[C@H]1CC2=C(c3ccn(C(F)F)n3)[C@H](c3ccc(F)cc3Cl)N=C(c3nccs3)N2C1)c1cccc(Br)n1` [Example 366] was tested, and the EC50 was < 100 nM. With `O=C(CC1(S(=O)(=O)N[C@H]2CC3=C(c4ccn(C(F)F)n4)[C@H](c4ccc(F)cc4Cl)N=C(c4nccs4)N3C2)CC1)NCc1ccccn1` [Example 372] the EC50 was < 100 nM. `C[C@@H](NC(=O)CC1(S(=O)(=O)N[C@H]2CC3=C(c4ccn(C(F)F)n4)[C@H](c4ccc(F)cc4Cl)N=C(c4nccs4)N3C2)CC1)c1ccccn1` [Example 373] was tested, and the EC50 was < 100 nM. In the case of `C[C@H](NC(=O)CC1(S(=O)(=O)N[C@H]2CC3=C(c4ccn(C(F)F)n4)[C@H](c4ccc(F)cc4Cl)N=C(c4nccs4)N3C2)CC1)c1ccccn1` [Example 374], the EC50 is reported as < 100 nM. For `O=S1(=O)CCCN1[C@H]1CC2=C(c3ccn(C(F)F)n3)[C@H](c3ccc(F)cc3Cl)N=C(c3nccs3)N2C1` [Example 375], the EC50 was 100 to 400 nM. `O=S(=O)(CCc1ccccn1)N[C@H]1CC2=C(c3ccn(C(F)F)n3)[C@H](c3ccc(F)cc3Cl)N=C(c3nccs3)N2C1` [Example 380] was tested, and the EC50 was 100 to 400 nM. For `CC(C)(C)OC(=O)Nc1cccc(S(=O)(=O)N[C@H]2CC3=C(c4ccn(C(F)F)n4)[C@H](c4ccc(F)cc4Cl)N=C(c4nccs4)N3C2)n1` [Example 382], the EC50 was 100 to 400 nM. In the case of `O=S(=O)(N[C@H]1CC2=C(c3ccn(C(F)F)n3)[C@H](c3ccc(F)cc3Cl)N=C(c3nccs3)N2C1)c1ccc([C@H]2CC[C@@](O)(c3ccccn3)CC2)cc1` [Example 384], the EC50 is reported as < 100 nM.
